Measurements taken from EPA's ToxValDB 9.5 (doi:10.2903/j.efsa.2010.1719).
In brackets after ≈: the same amount, converted by molar mass. Several values for one entry are separate records, joined by “and”; a condition that tells them apart may be missing. Identical values can stand only once.

Key:
Daphnia magna = settings: chronic/long-term; duration: 21 days; reproduction
Folsomia candida = settings: chronic/long-term; duration: 28 days
Apis mellifera = settings: acute; duration: 48 hours; dermal; mortality
Bibionidae = settings: chronic/long-term; duration: 28 days
Danio rerio = settings: mortality
Mus musculus = settings: acute; oral; M; mortality
Canidae = settings: chronic; duration: 1 years; oral; Dog Other; histopathology: nonneoplastic
Colinus virginianus = settings: for LD50: acute, oral, mortality

With `CCCN(CC)CC1COC2(CCC(C(C)(C)C)CC2)O1` (stereo not drawn) [Spiroxamine] the NOEC (Daphnia magna) was 0.034 mg/L, the NOEC (Folsomia candida) was 32 mg/kg and the LD50 (Apis mellifera) was over 4.2 µg/piece. It also gave an NOEC (Bibionidae) of 5.6 mg/L, an LC50 (Tagia sp.; acute, duration: 14 days, mortality) of over 1000 mg/kg and an NOEC (Tagia sp.; chronic/long-term, duration: 56 days) of over 3750 mg/kg. The NOAEL (Rattus norvegicus; acute, neurology) was 10 mg/kg-day, the LD50 (Rattus norvegicus; acute, oral, F, mortality) was under 560 mg/kg-day and the NOEL (Rattus norvegicus; chronic) was 9.19 mg/kg-day and 22.2 mg/kg-day. The LC50 (Danio rerio; acute, duration: 96 hours) was 2.41 µg/mL (≈ 8.1 µM), the NOEC (Danio rerio; chronic, duration: 230 days) was 0.002 mg/L and the LD50 (Mus musculus) was 460 mg/kg-day. The NOAEL (Canidae) was 2.5 mg/kg-day, the NOEL (Anas platyrhynchos; reproductive) was 10.6 mg/kg-day and the LD50 (Anas platyrhynchos; short-term, oral, feed, mortality) was 874 mg/kg-day. It also gave an LD50 (Colinus virginianus; diet) of over 358 mg/kg-day, an LD50 (Colinus virginianus) of 565 mg/kg-day and an NOEL (Colinus virginianus; reproduction developmental) of 2.02 mg/kg-day.
